Measurements from patent publication US20220125051A1, “PRE-HARVEST DESICCATION METHOD” (SYNGENTA CROP PROTECTION AG, priority 2019, published 2022).
Structures can show the parent of a compound that is named as a salt. Where two headings read alike, the source gives them in different places.

Key:
Experiment in all cases: Post-emergence efficacy, Method A
Format in all cases: in vivo
[1] = system: Amaranthus palmeri (AMAPA); conditions: evaluated after 13 days; for pest or weed control at 500 g/ha: Amaranthus palmeri, post-emergence, 312 h
How it was run: (§1)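 Plants raised 14 days from seed in standard soil in a glasshouse (24/16 °C day/night, 14 h light, 65% humidity) were sprayed with compound dissolved in acetone plus IF50 solvent/emulsifier (50 g/l solution), diluted with 0.25% or 1% Empicol ESC70 + 1% ammonium sulphate. Damage was scored visually after 13 days (0 = none, 100 = total).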

[2] = system: Chenopodium album (CHEAL); conditions: Chenopodium album, post-emergence, 312 h, evaluated after 13 days
How it was run: as §1

[3] = system: Digitaria sanguinalis (DIGSA); conditions: Digitaria sanguinalis, post-emergence, 312 h, evaluated after 13 days
How it was run: as §1

[4] = system: Echinochloa crus-galli (ECHCG); conditions: Echinochloa crus-galli, post-emergence, 312 h, evaluated after 13 days
How it was run: as §1

[5] = system: Eleusine indica (ELEIN); conditions: Eleusine indica, post-emergence, 312 h, evaluated after 13 days
How it was run: as §1

[6] = system: Euphorbia heterophylla (EPHHL); conditions: Euphorbia heterophylla, post-emergence, 312 h, evaluated after 13 days
How it was run: as §1

[7] = system: Ipomoea hederacea (IPOHE); conditions: Ipomoea hederacea, post-emergence, 312 h, evaluated after 13 days
How it was run: as §1

[8] = system: Lolium perenne (LOLPE); conditions: Lolium perenne, post-emergence, 312 h, evaluated after 13 days
How it was run: as §1

[9] = system: Setaria faberi (SETFA); conditions: Setaria faberi, post-emergence, 312 h, evaluated after 13 days
How it was run: as §1

[10] = Application Rate 500 g/Ha, Method A, read-out: Control of weed species after post-emergence application, AMAPA (100=total damage to plant; 0=no damage to plant)
[11] = Application Rate 500 g/Ha, Method A, read-out: Control of weed species after post-emergence application, CHEAL (100=total damage to plant; 0=no damage to plant)
[12] = Application Rate 500 g/Ha, Method A, read-out: Control of weed species after post-emergence application, DIGSA (100=total damage to plant; 0=no damage to plant)
[13] = Application Rate 500 g/Ha, Method A, read-out: Control of weed species after post-emergence application, ECHCG (100=total damage to plant; 0=no damage to plant)
[14] = Application Rate 500 g/Ha, Method A, read-out: Control of weed species after post-emergence application, ELEIN (100=total damage to plant; 0=no damage to plant)
[15] = Application Rate 500 g/Ha, Method A, read-out: Control of weed species after post-emergence application, EPHHL (100=total damage to plant; 0=no damage to plant)
[16] = Application Rate 500 g/Ha, Method A, read-out: Control of weed species after post-emergence application, IPOHE (100=total damage to plant; 0=no damage to plant)
[17] = Application Rate 500 g/Ha, Method A, read-out: Control of weed species after post-emergence application, LOLPE (100=total damage to plant; 0=no damage to plant)
[18] = Application Rate 500 g/Ha, Method A, read-out: Control of weed species after post-emergence application, SETFA (100=total damage to plant; 0=no damage to plant)
[19] = Application rate 500 g/Ha, 100=total damage to plant, 0=no damage to plant, read-out: Control of weed species after post-emergence application, AMAPA
[20] = Application rate 500 g/Ha, 100=total damage to plant, 0=no damage to plant, read-out: Control of weed species after post-emergence application, CHEAL
[21] = Application rate 500 g/Ha, 100=total damage to plant, 0=no damage to plant, read-out: Control of weed species after post-emergence application, DIGSA
[22] = Application rate 500 g/Ha, 100=total damage to plant, 0=no damage to plant, read-out: Control of weed species after post-emergence application, ECHCG
[23] = Application rate 500 g/Ha, 100=total damage to plant, 0=no damage to plant, read-out: Control of weed species after post-emergence application, ELEIN
[24] = Application rate 500 g/Ha, 100=total damage to plant, 0=no damage to plant, read-out: Control of weed species after post-emergence application, EPHHL
[25] = Application rate 500 g/Ha, 100=total damage to plant, 0=no damage to plant, read-out: Control of weed species after post-emergence application, IPOHE
[26] = Application rate 500 g/Ha, 100=total damage to plant, 0=no damage to plant, read-out: Control of weed species after post-emergence application, LOLPE
[27] = Application rate 500 g/Ha, 100=total damage to plant, 0=no damage to plant, read-out: Control of weed species after post-emergence application, SETFA

Compound	pest or weed control at 500 g/ha [1, 10]	pest or weed control at 500 g/ha [2, 11]	pest or weed control at 500 g/ha [3, 12]	pest or weed control at 500 g/ha [4, 13]	pest or weed control at 500 g/ha [5, 14]	pest or weed control at 500 g/ha [6, 15]	pest or weed control at 500 g/ha [7, 16]	pest or weed control at 500 g/ha [8, 17]	pest or weed control at 500 g/ha [9, 18]	pest or weed control at 500 g/ha [1, 19]	pest or weed control at 500 g/ha [2, 20]	pest or weed control at 500 g/ha [3, 21]	pest or weed control at 500 g/ha [4, 22]	pest or weed control at 500 g/ha [5, 23]	pest or weed control at 500 g/ha [6, 24]	pest or weed control at 500 g/ha [7, 25]	pest or weed control at 500 g/ha [8, 26]	pest or weed control at 500 g/ha [9, 27]	Control of weed species after post-emergence application, AMAPA ([1]; Application rate 500 g/Ha, 100=total damage to plant, 0=no damage to plant)
CO[N-]C(=O)CC[n+]1ccc(-c2ncccn2)cn1 [Compound A218]	100%	80%	70%	60%	60%	80%	70%	70%	60%										
COc1nc(-c2cc[n+](CCC(=O)[O-])nc2)ncc1C [Compound A106]										80%	20%	60%	50%	80%	20%	10%	60%	60%	
COc1cc(OC)nc(-c2cc[n+](CCC(=O)[O-])nc2)n1 [Compound A76]										30%	20%	20%	30%	30%	30%	20%	30%	40%	
O=S(=O)([O-])OCC[n+]1ccc(-c2ncccn2)cn1 [Compound A194, 2-(4-pyrimidin-2-ylpyridazin-1-ium-1-yl)ethyl sulfate]	100%	70%	50%	70%	90%	70%	60%	50%	50%										
COc1ccnc(-c2cc[n+](CCS(=O)(=O)[O-])nc2)n1 [Compound A13]										100%	50%	70%	50%	100%	70%	50%	50%	60%	
O=C(O)CC[n+]1ccc(-c2ccnc(O)n2)cn1 [Compound A86]										30%	40%	30%	20%	10%	50%	40%	10%	40%	
COC(=O)C[n+]1ccc(-c2ncccn2)cn1 [Compound A2, methyl 2-(4-pyrimidin-2-ylpyridazin-1-ium-1-yl)acetate bromide]										60%	20%	40%	50%	30%	90%	10%	0%	80%	
Cc1n[n+](CCC(=O)O)ccc1-c1ncccn1.O=C([O-])C(F)(F)F [Compound A132]											30%	90%	70%	90%	30%	10%	50%	100%	90
Nc1cc(-c2cc[n+](CCS(=O)(=O)[O-])nc2)ncn1 [Compound A164]	100%	80%	30%	30%	80%	90%	40%	40%	50%										
Cc1cnc(-c2cc[n+](CCC(=O)[O-])nc2)nc1C [Compound A96]										70%	20%	40%	70%	40%	90%	40%	60%	70%	
Cc1c[n+](CCC(=O)O)ncc1-c1ncccn1 [Compound A153]	90%	60%	20%	40%	20%	40%	20%	0%	20%										
O=S(=O)([O-])CC[n+]1ccc(-c2ncc(C3CC3)cn2)cn1 [Compound A34]										100%	70%	60%	30%	90%	70%	70%	60%	70%	
Cc1cccc(-c2cc[n+](CCC(=O)[O-])nc2)n1 [Compound A63]										40%	30%	30%	40%	50%	30%	20%	20%	40%	
Cc1cc(F)cnc1-c1cc[n+](CCCS(=O)(=O)[O-])nc1 [Compound A196]	30%	40%	0%	0%	10%	30%	20%	0%	0%										
Cc1cnc(-c2cc[n+](CCS(=O)(=O)[O-])nc2)c(C)c1 [Compound A152]										20%	10%	30%	20%	20%	20%	0%	10%	20%	
